Usually IC50 stands for the concentration that inhibits the measured activity by half. What is called MIC is the smallest concentration in the dilution series that meets the test's criterion for growth inhibition.

Our source for the IC50 and MIC values is patent US20180312493A1, “Antibiotic Compounds, Pharmaceutical Formulations Thereof And Methods And Uses Therefor” (Simon Fraser University, priority 2015, published 2018).

Converted amounts (≈) assume the structure as drawn.

For one assay, the target named is T1, MRSA Pyk (Staphylococcus aureus, UniProt Q6GG09).
T1 construct: made in house; host or cells: E. coli BL-21 (DE3)
The assay is described as follows: MRSA pyruvate kinase (PK) activity, continuous LDH-coupled assay. It counts as biochemical, methicillin resistant S. aureus (MRSA252). In outline:
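Activity monitored continuously as absorbance change at 340 nm from NADH oxidation via coupled lactate dehydrogenase, reactions started with 15 nM recombinant His-tagged PK (MRSA or human isoform) and run at 30° C for up to 5 min. Ki derived by varying inhibitor (0-400 nM) and PEP (2-20 mM) at 2 mM ADP; IC50 by four-parameter fitting.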

A further assay has as its system K. pneumoniae (C238). The assay is described as follows: In vitro susceptibility, broth microdilution (MIC). It counts as cell-based. Particulars: Klebsiella pneumoniae; K. pneumoniae (C238); read-out: Antimicrobial activity (MIC) K. pneumoniae. In outline: (§1)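 CLSI 2-fold serial broth microdilution; K. pneumoniae C238 grown in L-broth, S. aureus ATCC 29213 in Mueller Hinton broth, plates incubated 18–24 h at 37 °C. MIC taken as lowest concentration giving complete growth inhibition by OD600 versus compound-free wells, background-subtracted.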
Background: Dilution methods test growth across graded concentrations, often in twofold steps.

The next assay deals with S. aureus (ATCC29213). The assay is described as follows: In vitro susceptibility, broth microdilution (MIC). Particulars: Staphylococcus aureus; S. aureus ATCC29213; 18-24 h, 37 C; read-out: Antimicrobial activity (MIC) S. aureus ATCC29213. Type of assay: cell-based. In a few lines:
as §1

T1 sequence (Q6GG09 whole entry): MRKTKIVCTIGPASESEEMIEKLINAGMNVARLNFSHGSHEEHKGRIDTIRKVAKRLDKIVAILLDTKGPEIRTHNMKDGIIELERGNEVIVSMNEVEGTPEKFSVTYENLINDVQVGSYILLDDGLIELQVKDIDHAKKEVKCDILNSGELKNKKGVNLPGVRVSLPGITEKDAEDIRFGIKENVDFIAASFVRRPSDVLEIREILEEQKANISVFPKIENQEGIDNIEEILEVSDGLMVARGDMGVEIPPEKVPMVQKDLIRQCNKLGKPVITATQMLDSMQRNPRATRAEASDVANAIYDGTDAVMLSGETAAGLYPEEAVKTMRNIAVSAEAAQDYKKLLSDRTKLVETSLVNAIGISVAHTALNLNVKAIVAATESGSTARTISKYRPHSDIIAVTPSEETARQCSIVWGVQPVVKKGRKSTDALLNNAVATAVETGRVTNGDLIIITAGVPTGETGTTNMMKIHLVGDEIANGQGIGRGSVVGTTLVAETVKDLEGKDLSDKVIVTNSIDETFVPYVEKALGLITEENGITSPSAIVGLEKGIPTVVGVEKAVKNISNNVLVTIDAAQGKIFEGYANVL

For the compound `O=C(NCCCCN1CCOCC1)c1c(/C=C/c2ccc(Cl)cc2)[nH]c2cc(Br)ccc12` [Compound 45, (E)-6-Bromo-2-(4-chlorostyryl)-N-(4-morpholinobutyl)-1H-indole-3-carboxamide], the IC50 at MRSA Pyk was less than 100 nM. For the same compound, the MIC with K. pneumoniae (C238) is 32 µg/mL (≈ 61.9 µM); in the assay with S. aureus (ATCC29213), more than 64 µg/mL.
In the same order, the values of `O=C(NCCc1ccccn1)C(=O)c1c(/C=C/c2ccc(Cl)cc2)[nH]c2cc(Br)ccc12` [Compound 88, (E)-2-(6-bromo-2-(4-chlorostyryl)-1H-indol-3-yl)-2-oxo-N-(2-(pyridin-2-yl)ethyl)acetamide] are 100 to 1000 nM, more than 64 µg/mL and more than 64 µg/mL.
The matching figures for `CNC(=O)C(=O)c1c(CCc2ccc(Cl)cc2)[nH]c2cc(Br)ccc12` [Compound 89, 2-(6-bromo-2-(4-chlorophenethyl)-1H-indol-3-yl)-N-methyl-2-oxoacetamide]: more than 1000 nM, more than 64 µg/mL and more than 64 µg/mL.
The matching figures for `CNC(=O)C(O)c1c(/C=C/c2ccc(Cl)cc2)[nH]c2cc(Br)ccc12` (stereo not drawn) [Compound 90, (E)-2-(6-bromo-2-(4-chlorostyryl)-1H-indol-3-yl)-2-hydroxy-N-methylacetamide]: 100 to 1000 nM, more than 64 µg/mL and more than 64 µg/mL.
In the case of `CN(Cc1ccccc1)c1c(CCc2ccc(Cl)cc2)[nH]c2cc(Br)ccc12` [Compound 98, N-benzyl-6-bromo-2-(4-chlorophenethyl)-N-methyl-1H-indol-3-amine], the IC50 on MRSA Pyk was in the range of 100 to 1000 nM. Also, the figures for the MIC in the assay with K. pneumoniae (C238) and in the assay on S. aureus (ATCC29213) were more than 64 µg/mL and 32 µg/mL (≈ 70.5 µM), respectively.
The matching figures for `COCCNC(=O)CCCC(=O)c1c(-c2cc3cc(Cl)ccc3[nH]2)[nH]c2cc(Br)ccc12` [Compound 103, 5-(6-bromo-5′-chloro-1H,1′H-[2,2′-biindol]-3-yl)-N-(2-methoxyethyl)-5-oxopentanamide]: less than 100 nM, more than 64 µg/mL and more than 64 µg/mL.
In the same order, the values of `O=C(CCCC(=O)c1c(-c2cc3cc(Cl)ccc3[nH]2)[nH]c2cc(Br)ccc12)NCCO` [Compound 104, 5-(6-bromo-5′-chloro-1H,1′H-[2,2′-biindol]-3-yl)-N-(2-hydroxyethyl)-5-oxopentanamide] are less than 100 nM, more than 64 µg/mL and more than 64 µg/mL.
In the same order, the values of `O=C(CCCC(=O)c1c(-c2cc3cc(Cl)ccc3[nH]2)[nH]c2cc(Br)ccc12)Nc1ncn[nH]1` [Compound 105, 5-(6-bromo-5′-chloro-1H,1′H-[2,2′-biindol]-3-yl)-5-oxo-N-(1H-1,2,4-triazol-5-yl)pentanamide] are less than 100 nM, more than 64 µg/mL and more than 64 µg/mL.
For the compound `Cc1nc2c(cc1-c1ccc(Cl)cc1)[nH]c1cc(Br)ccc12` [Compound 113, 7-bromo-3-(4-chlorophenyl)-2-methyl-5H-pyrido[3,2-b]indole], at MRSA Pyk, the concentration for half-maximal inhibition (IC50) was less than 100 nM. Moreover, the MIC in the assay with K. pneumoniae (C238) and with S. aureus (ATCC29213) was more than 64 µg/mL throughout.
